“Also recorded” adds a separate entry of the source.

One assay relates to C. elegans. Put plainly: NAD measurement by HPLC in worms. In kind it is in vivo. To be noted: day 4 of adulthood. The procedure:
Worm Respiration Assays Oxygen consumption was measured using the Seahorse XF24 equipment (Seahorse Bioscience Inc., North Billerica, Mass.) as described in Yamamoto et al. Typically, 200 animals per conditions were recovered from NGM plates with M9 medium, washed three times in 2 mLM9 to eliminate residual bacteria, and resuspended in 500 μL M9 medium. Worms were transferred in 24-well standard Seahorse plates (#100777-004) (50 worms per well) and oxygen consumption was measured 6 times. Respiration rates were normalized to the number of worms in each individual well. NAD measurement by HPLC For NAD+ quantification, approximately 1000 worms were collected in M9 buffer, washed five times to remove residual bacteria and flash-frozen in liquid nitrogen and stored at −80° C. until analysis. Extraction was started by adding 250 μl of 1.6M perchloric acid on frozen samples, followed by extensive homogenization in a Qiagen tissuelyser, and centrifugation at 20.000 g for 15 min. The supernatant was recovered and neutralized with a 3M potassium carbonate solution. […]

The next assay deals with C57Bl/6J mice. Put plainly: NAD+ metabolism in tissues after chronic NR feeding. In kind it is in vivo. The procedure: mRNA and mtDNA Analysis. Total RNA was prepared using TRIzol (Invitrogen) according to the manufacturer's instructions. RNA was treated with DNase, and 2 μg of RNA was used for reverse transcription (RT). cDNA was purified on QIAquick PCR cleanup columns (Qiagen, Valencia, Calif., USA). 50× diluted cDNA was used for RT-quantitative PCR (RT-VCR) VCR) reactions (Bai et al., 2007). The RT-qPCR reactions were performed using the Light-Cycler system (Roche Applied Science) and a qPCR Supermix (Qiagen) with the primers for mice summarized in Table 1 and 4, and with the primers for worms summarized on Table 7. mtDNA quantification was performed as described (Lagouge et al., 2006) with the primers indicated in Table 2 and 5.
Immunoprecipitation, SDS-PAGE, Western Blotting. Cells were lysed in lysis buffer (50 mM Tris, […], EDTA 1 mM, NP40 1%, nicotinamide 5 mM, Na-butyrate 1 in M, protease inhibitors pH7.4). Proteins were separated by SDS-PAGE and transferred onto nitrocellulose membranes. The origin of the primary and secondary antibodies used can be found as supplemental experimental procedures. Reactions were developed by enhanced chemiluminescence (Amersham, Little Chalfont, UK), PGC-1α, FOXO1 and Ndufa9 acetylation levels were analyzed by immunoprecipitation from cellular or nuclear lysates of tissues with anti-PGC-1α (Millipore), anti-FOXO1 (Cell Signaling, Danvers, Mass., USA) and anti-Ndufa9 (Abcam) antibody followed by Western blot using an acetyl-lysine antibody (Cell Signaling) that was normalized to total PGC-1a/FOXO1/Ndufa9 levels (Lagouge et al., 2006; Rodgers et al., 2005). In HEK293T cells HA-tagged PGC-1α was overexpressed and was immunoprecipitated using an anti-HA. In C2C12 myotubes, FLAG-HA tagged PGC-1α was introduced through adenoviral delivery 2 days before treatments, then IP was performed using anti-FLAG antibody and samples were processed as described. All blots were quantified by densitometry using ImageJ software. Poly(ADP-Ribose) detection was performed as previously described with slight modifications (Bai et al., PARP-1 inhibition increases mitochondrial metabolism through SIRT1 activation. Cell Metab 13, 461-468. (2011)) Briefly, PAR was detected by using a monoclonal anti-PAR antibody (Alexis, Lausanne Switzerland) by Western blotting of total protein lysates, using either […] of total worm protein lysates, […] of liver protein lysate or 200 g of muscle total protein extracts. PGC-1 acetylation was determined using PGC-1 immunoprecipitates from 2 mg of protein extracts, as described in Canto et al. (Canto et al., AMPK regulates energy expenditure by modulating NAD+ metabolism and SIRT1 activity. Nature 458, 1056 (2009)).
NAD^+ NAM Determination. NAD^+ levels in cultured cells were determined using a commercial kit (Enzychrom™, BioAssays Systems, CA). For tissue samples NAD^+ and NAM levels were determined as described in (Sauve et al., 2005). In brief, to a weighed aliquot of frozen pulverized tissue we added as standards, ^18O-NAD^+ (typically 2.00 nmol) and ^18O-NAM (typically 2.00 nmol). 70 L of ice-cold 7% perchloric acid was then added and the sample was vortexed and sonicated three times, then centrifuged. Clear supernatant was removed and neutralized by additions of 3 M NaOH and 1 M phosphate buffer (pH=9), then centrifuged. Clear supernatant was injected onto HPLC C-18 column with 20 mM ammonium acetate eluent to separate NAD^+ and NAM from other cellular components, NAD^+ and NAM peaks (260 nm absorbance) were collected. Collections were lyophilized to dryness and subjected to MALDI-TOF analysis. For NAD^+ measurement, ratio of intensities for m/z=664 and 666 peaks, corresponding to ^16O- and ^18O-NAD^+ isotopomers, was multiplied by 2.00 nmol and then divided by tissue weight to determine NAD+ concentration in the sample. […]

As for `NC(=O)c1ccc[n+]([C@@H]2O[C@H](CO)[C@@H](O)[C@H]2O)c1` [NR, nicotinamide riboside], the “NAD+ levels in C. elegans” value with C. elegans is recorded as “increased NAD+ levels; also recorded: increases”. Also, the “NAD+ levels in liver and muscle” value in the assay with C57Bl/6J mice (CD and HFD, chronic NR 400 mg/kg/day) was “increased NAD^+ levels”. Further, in the assay with C57Bl/6J mice (chronic NR 400 mg/kg/day), the “NAD+ in BAT” value is “higher in the BAT of NR-fed mice, but only on HFD” and the “NAD+ levels in brain or white adipose tissue (WAT)” value is on record as “but not in others, such as brain or white adipose tissue (WAT)”. Also, in the assay on C57Bl/6J mice (gastrocnemius, HFD 16 weeks), the “NADH levels in muscle” value is “largely diminished” and the “nicotinamide (NAM) levels in muscle” value is given as “largely diminished”. In the assay on C57Bl/6J mice (quadriceps, HFD 16 weeks), the “Nampt mRNA and protein levels” value was “levels were also similar”; the “mRNA expression of NMNAT enzymes” value is listed as “could not detect differences”.

(Values after US10709724B2, “Methods of treating mitochondrial dysfunction” (Ecole Polytechnique Federale de Lausanne (EPFL), priority 2011, dated 2020).)
